Data reported in US20060276412A1, “METHODS AND COMPOSITIONS FOR MANAGING PSYCHOTIC DISORDERS” (priority 2005, published 2006).
Values joined by “and” are separate entries in the source; they are usually repeats but may differ in a detail not shown here. Equal entries are not always repeated. Where two headings read alike, the source gives them in different places.

Columns and labels:
[1] = tested on: serotonin (5HT) in hypothalamus; test: Brain microdialysis: serotonin in hypothalamus; assay type: in vivo, rats; conditions: 25 mg/kg zonisamide
Text: (§1) 62 adult Sprague-Dawley male rats (Harland, Indianapolis) weighing 300-350 g were used in the following studies. The rats were quarantined for at least five days in group housing. Following the quarantine procedure, rats were maintained in individual cages. For surgical implantation with intracerebral guides, guides were inserted directly above either the hypothalamus (HT) (31 rats), or the medial prefrontal cortex (mPFC) (31 rats). Stereotaxic coordinates (Paxinos and Watson, 1986) provided below were used to position the guide cannulae and/or probes: Animals were anesthetiszed according using standard procedures. The head of each animal was shaved from the front of the eyes to the back of the skull. Shaved areas were disinfected, and the animals were placed in stereotaxic frame ear bars. The animal was aligned with the incisor bar. The animal's scalp was cut with a sharp #15 scalpel blade. If the bone began to bleed, bone wax was applied to the incision. Periosteal tissue was cleaned from the skull to the lateral ridges with a cotton swab, and clamps were used to pull the skin out of the way. The probe or guide was placed in the clamp, such that the angled outlet cannula of the microdialysis probe was angled towards the animal's tail. The target coordinates were calculated, and this point was marked on the skull. Two holes in opposing skull bones were drilled for bone anchor screws and thread screws. The dura was torn away with a sharp, pointed object. The guide cannulae were placed at the dorsal/ventral zero point. […] Using dental acrylic, the cannulae were cemented to the bone anchor screws. The cement was allowed to harden and the rodent was removed from the stereotaxic frame. The cranial and caudal aspects of the incision were sutured. The animals were allowed to recover for three to five days. Stylets in the guides were replaced with dialysis probes on the evening prior to study to allow for animal acclimation and to reestablish the integrity of the blood brain barrier. […] Rats were weighed pre-surgery, every 1-2 days post-surgery until time of microdialysis, and postmortem. Microdialysis probes used in the experiments described below were first soaked in standard Ringer's perfusion medium for 30 minutes. Inlet and outlet tubing was connected to each probe using flanged connectors. The outlet tubing was connected to a fraction collector, and the inlet was connected to and […] syringe drive. The probes were immersed in fresh Ringer's solution and flushed with Ringer's perfusion medium at a rate of 2 μl/min for 1 hour. The probe was then transferred to the intracerebral guide on the rat's skull. […] Water was added to obtain a final concentration of 0.3 mg/ml. […] Zonisamide was dissolved in DMSO. […] The final concentration of zonisamide was 7.5 mg/ml. The drug solution was maintained at 37° C. prior to injection. The rats were divided into ten test groups. Five animals were analyzed for each test group. The test groups were as follows: For the microdialysis experiments, perfusion consisted of 2 μl/min delivery of sterile standard Ringer's solution for intervals of 20 minutes. Final collection volumes were 40 μl. 30 μl samples were analyzed for each analyte: DA, NE, 5HT. 12 pre-dose samples and 12 post dose samples were collected every 20 minutes for a duration of 4 hours, both pre-dose and post-dose. Six samples from the pre-dose and post-dose collections were analyzed for norepinephrine. The remaining six samples from the pre-dose and post-dose collections were analyzed for both dopamine and serotonin. Samples were chilled to -80° C. immediately following collection. The samples were analyzed using liquid chromatography with electrochemical detection using conventional techniques. See, e.g., Huang, T., R. et al. (1994) New […] Microbore Columns for Liquid Chromatography. Current Separations 12(4): 191-195. […] Concentrations of each compound are expressed as % baseline.

[2] = tested on: serotonin (5HT) in medial prefrontal cortex; test: Brain microdialysis: serotonin in mPFC; assay type: in vivo, rats; conditions: 25 mg/kg zonisamide
Text: as §1

[3] = tested on: dopamine (DA) in hypothalamus; test: Brain microdialysis: dopamine in hypothalamus; assay type: in vivo, rats; conditions: 25 mg/kg zonisamide
Text: as §1

[4] = tested on: dopamine (DA) in medial prefrontal cortex; test: Brain microdialysis: dopamine in mPFC; assay type: in vivo, rats; conditions: 25 mg/kg zonisamide
Text: as §1

[5] = tested on: norepinephrine (NE) in hypothalamus; test: Brain microdialysis: norepinephrine in hypothalamus; assay type: in vivo, rats; conditions: 25 mg/kg zonisamide
Text: as §1

[6] = tested on: norepinephrine (NE) in medial prefrontal cortex; test: Brain microdialysis: norepinephrine in mPFC; assay type: in vivo, rats; conditions: 25 mg/kg zonisamide
Text: as §1

[7] = tested on: psychotic patients (bipolar manic state, schizoaffective manic state, schizophrenic excitement); conditions: cited from earlier work; for patients showing remarkable global improvement: addition of zonisamide
[8] = patients presenting with primary obesity; cited from earlier work
carbonic anhydrase = conditions: cited from earlier work

NS(=O)(=O)Cc1noc2ccccc12 [zonisamide]
Serotonin concentrations in hypothalamus ([1]; 3 HOUR AVE): 96.664 % baseline and 96.6637 % baseline
Serotonin concentrations in hypothalamus ([1]; 40 min post dose): 139.708 % baseline
Serotonin concentrations in hypothalamus ([1]; 80 min post dose): 88.171 % baseline
Serotonin concentrations in hypothalamus ([1]; 120 min post dose): 87.586 % baseline
Serotonin concentrations in hypothalamus ([1]; 160 min post dose): 64.925 % baseline
Serotonin concentrations in hypothalamus ([1]; 200 min post dose): 98.920 % baseline
Serotonin concentrations in hypothalamus ([1]; 240 min post dose (Table 7)): 100.672 % baseline
Serotonin concentrations in hypothalamus ([1]; +220 min post dose): 100.672 % baseline
Serotonin concentrations in hypothalamus ([1]; -20 min pre dose): 133.061 % baseline
Serotonin concentrations in hypothalamus ([1]; -60 min pre dose): 79.388 % baseline
Serotonin concentrations in hypothalamus ([1]; -100 min pre dose): 87.552 % baseline
Serotonin concentrations in mPFC ([2]; 3 HOUR AVE): 77.954 % baseline and 77.9543 % baseline
Serotonin concentrations in mPFC ([2]; 40 min post dose): 96.932 % baseline
Serotonin concentrations in mPFC ([2]; 80 min post dose): 74.461 % baseline
Serotonin concentrations in mPFC ([2]; 120 min post dose): 60.557 % baseline
Serotonin concentrations in mPFC ([2]; 160 min post dose): 82.729 % baseline
Serotonin concentrations in mPFC ([2]; 200 min post dose): 89.529 % baseline
Serotonin concentrations in mPFC ([2]; 240 min post dose): 63.518 % baseline
Serotonin concentrations in mPFC ([2]; -20 min pre dose): 107.652 % baseline
Serotonin concentrations in mPFC ([2]; -60 min pre dose): 119.648 % baseline
Serotonin concentrations in mPFC ([2]; -100 min pre dose): 72.700 % baseline
Dopamine concentrations in hypothalamus ([3]; 3 HOUR AVE): 104.3854 % baseline and 105.438 % baseline
Dopamine concentrations in hypothalamus ([3]; 40 min post dose): 121.635 % baseline
Dopamine concentrations in hypothalamus ([3]; 80 min post dose): 72.946 % baseline
Dopamine concentrations in hypothalamus ([3]; 120 min post dose): 91.707 % baseline
Dopamine concentrations in hypothalamus ([3]; 160 min post dose): 66.181 % baseline
Dopamine concentrations in hypothalamus ([3]; 200 min post dose): 143.010 % baseline
Dopamine concentrations in hypothalamus ([3]; 240 min post dose): 123.012 % baseline
Dopamine concentrations in hypothalamus ([3]; -20 min pre dose): 142.394 % baseline
Dopamine concentrations in hypothalamus ([3]; -60 min pre dose): 56.252 % baseline
Dopamine concentrations in hypothalamus ([3]; -100 min pre dose): 101.354 % baseline
Dopamine concentrations in mPFC ([4]; 3 HOUR AVE): 117.183 % baseline
Dopamine concentrations in mPFC ([4]; 40 min post dose): 166.688 % baseline
Dopamine concentrations in mPFC ([4]; 80 min post dose): 86.224 % baseline
Dopamine concentrations in mPFC ([4]; 120 min post dose): 111.764 % baseline
Dopamine concentrations in mPFC ([4]; 160 min post dose): 109.627 % baseline
Dopamine concentrations in mPFC ([4]; 200 min post dose): 94.060 % baseline
Dopamine concentrations in mPFC ([4]; 240 min post dose): 134.732 % baseline
Dopamine concentrations in mPFC ([4]; -20 min pre dose): 98.672 % baseline
Dopamine concentrations in mPFC ([4]; -60 min pre dose): 87.652 % baseline
Dopamine concentrations in mPFC ([4]; -100 min pre dose): 113.677 % baseline
Norepinephrine concentrations in hypothalamus ([5]; 3 HOUR AVE): 124.221 % baseline and 124.272 % baseline
Norepinephrine concentrations in hypothalamus ([5]; 20 min post dose): 194.380 % baseline
Norepinephrine concentrations in hypothalamus ([5]; 60 min post dose): 151.267 % baseline
Norepinephrine concentrations in hypothalamus ([5]; 100 min post dose): 101.287 % baseline
Norepinephrine concentrations in hypothalamus ([5]; 140 min post dose): 99.489 % baseline
Norepinephrine concentrations in hypothalamus ([5]; 180 min post dose): 102.237 % baseline
Norepinephrine concentrations in hypothalamus ([5]; 220 min post dose): 91.722 % baseline
Norepinephrine concentrations in hypothalamus ([5]; -40 min pre dose): 111.356 % baseline
Norepinephrine concentrations in hypothalamus ([5]; -80 min pre dose): 88.184 % baseline
Norepinephrine concentrations in hypothalamus ([5]; -120 min pre dose): 100.460 % baseline
Norepinephrine concentrations in mPFC ([6]; 3 HOUR AVE): 114.112 % baseline and 114.142 % baseline
Norepinephrine concentrations in mPFC ([6]; 20 min post dose): 164.376 % baseline
Norepinephrine concentrations in mPFC ([6]; 60 min post dose): 102.033 % baseline
Norepinephrine concentrations in mPFC ([6]; 100 min post dose): 105.920 % baseline
Norepinephrine concentrations in mPFC ([6]; 140 min post dose): 102.114 % baseline
Norepinephrine concentrations in mPFC ([6]; 180 min post dose): 115.233 % baseline
Norepinephrine concentrations in mPFC ([6]; 220 min post dose): 95.176 % baseline
Norepinephrine concentrations in mPFC ([6]; -40 min pre dose): 101.451 % baseline
Norepinephrine concentrations in mPFC ([6]; -80 min pre dose): 106.249 % baseline
Norepinephrine concentrations in mPFC ([6]; -120 min pre dose): 92.300 % baseline
patients showing remarkable global improvement ([7]; all the patients (24)): Approximately 25%
patients with more than moderate global improvement ([7]; all the patients (24)): Approximately 71%
patients with more than moderate global improvement ([7]; bipolar group): ~80%
patients showing remarkable global improvement ([7]; bipolar manic patients): ~33%
weight loss [8]: significant weight loss
inhibitory effect on carbonic anhydrase (carbonic anhydrase): weak inhibitory effect
